Data: patent publication US20080171657A1, “5,6-Dialkyl-7-Aminoazolopyrimidines, Their Preparation and Their Use for Controlling Harmful Fungi, and Compositions Comprising These Compounds” (Basf Aktiengesellschaft, priority 2005, published 2008)

Experiments:
Puccinia recondita = test: Protective activity against Puccinia recondita on wheat (brown rust of wheat); type: in vivo; conditions: comparison to closest prior art; concentration not given; untreated 90
Description: The active compounds were prepared as a stock solution comprising 25 mg of active compound which was made up to 10 ml using a mixture of acetone and/or DMSO and the emulsifier Uniperol® EL (wetting agent having emulsifying and dispersing action based on ethoxylated alkylphenols) in a volume ratio of solvent/emulsifier of 99/1. The mixture was then made up to 100 ml with water. This stock solution was diluted with the solvent/emulsifier/water mixture described to the concentration of active compound stated below. Protective Activity Against Puccinia recondita on Wheat (brown Rust of Wheat) Leaves of potted wheat seedlings of the cultivar “Kanzler” were sprayed to runoff point with an aqueous suspension having the concentration of active compounds stated below. The next day, the treated plants were inoculated with a spore suspension of brown rust of wheat (Puccinia recondite). The plants were then placed in a chamber with high atmospheric humidity (90 to 95%) at 20 to 22° C. for 24 hours. During this time, the spores germinated and the germ tubes penetrated into the leaf tissue. The next day, the test plants were returned to the greenhouse and cultivated at temperatures between 20 and 22° C. and 65 to 70% relative atmospheric humidity for a further 7 days. The extent of the rust fungus development on the leaves was then determined visually.

| melting point [°C] | Structure (SMILES) | Infection in % (Puccinia recondita) [%] |
| --- | --- | --- |
| 132 to 134 | CCCCCCc1c(CCC)nc2cc(C)nn2c1N [I-1] | 20 |
|  | CCCCCc1c(CCC)nc2cc(C)nn2c1N [compound 24, reference compound] | 40 |
